Data reported in PMC10348910, “Epigenetic reprogramming of cell cycle genes by ACK1 promotes breast cancer resistance to CDK4/6 inhibitor” (Oncogene, 2023).

Legend:
Type in all cases: cell-based
CXCR4 mRNA = test: qRT-PCR of CXCR4 in MDA-MB-231 cells
Method: Fig. 7 ACK1 inhibitor overcomes palbociclib-resistant breast cancer growth and metastasis. A 3 × 10^6 MDA-MB-468 cells were injected in the 4th inguinal mammary fat pad of female SCID mice. Once the tumors were palpable, the mice were treated with either vehicle (Captisol; n = 7), Palbociclib at 80 mg/kg (n = 6), or (R)-9b at 36 mg/Kg (n = 6) orally. In addition, mice were injected with (R)-9b at 24 mg/Kg (n = 7) subcutaneously. Mice were treated five times a week, for 22 days. B, C The tumors were harvested and photographed, and the weights were recorded. D Vehicle or (R)-9b treated breast cancer cells were subjected to ChIP using pY88-H4 antibody, followed by qPCR for CXCR4 gene. E CXCR4 mRNA transcript levels in vehicle or (R)-9b treated MDA-MB-231 cells. 18S rRNA was used as housekeeping gene. F MDA-MB-231 cells were transfected with ACK1 or scrambled siRNA, followed by qRT-PCR to determine CXCR4 mRNA transcript levels. […] H Graphical quantitation of lung metastatic deposit. […] The metastases were assessed using IVIS. […] For (A, C–F, I), p values were calculated using unpaired two-tailed Student’s t test.
Real-time quantitative PCR analyses were performed using the ABI PRISM 7900HT Sequence Detection System (Applied Biosystems) as described earlier. […] Data were analyzed using SDS software version 2.2.2 and exported into an Excel spreadsheet. […]

[1] = system: Palbociclib-resistant MDA-MB-231; test: proliferation assay, trypan blue exclusion; details: palbociclib-resistant MDA-MB-231, 96 h
Method: (§1) A–F Breast cancer cells were treated with either vehicle or (R)-9b for 48 h; cells were harvested and processed for cell cycle analysis using propidium iodide staining, followed by flow cytometry. G BT549 and H MDA-MB-468 cells were treated with varying drug concentrations of palbociclib or (R)-9b for 96 h and the cell viability assessed using trypan blue exclusion method. I BT549, and J MDA-MB-468 cells were treated with 1 µM palbociclib or (R)-9b for 48 h and subjected to cell cycle analysis using propidium iodide staining, followed by flow-cytometry. Palbociclib-resistant MDA-MB-231 (K) and HCC-1395 (L) were generated and treated with varying drug concentrations of palbociclib or (R)-9b for 96 h and the cell viability assessed using trypan blue exclusion method.
(§2) The mid-G1 phase is governed by CDK4 and CDK6, two serine/threonine kinases the catalytic activity of which is modulated by D-type cyclins (D1, D2, and D3). […]
(§3) For proliferation assay, 5 × 10^4 cells were plated in 6-well plate and treated with either vehicle (DMSO) or varying concentrations of (R)-9b or palbociclib in complete media for 96 h and number of viable cells were counted by trypan blue exclusion assay. […] The cells were acquired using the BD FACSCalibur machine (BD Biosciences) and data was analyzed using FlowJo software. […] The data were analyzed using FlowJo software.

[2] = system: Palbociclib-resistant HCC-1395; test: proliferation assay, trypan blue exclusion; details: palbociclib-resistant HCC-1395, 96 h
Method: as §1, §2, §3

## CN1CCN(c2ccc(Nc3ncc(Cl)c(NC[C@H]4CCCO4)n3)cc2)CC1 [(R)-9b]
CXCR4 mRNA
  CXCR4 transcription: inhibited CXCR4 transcription
[1]
  sensitivity (cell proliferation): loss of proliferation
[2]
  sensitivity (cell proliferation): loss of proliferation
